Measured values: patent US3991041A, “(Phe3 -Ala)1 -somatostatin” (American Home Products Corporation, priority 1975, dated 1976)

Experiments:
Type in all cases: in vivo, albino male rats
growth hormone = experiment: Nembutal/arginine rat test, blood radioimmunoassayed for growth hormone
Protocol: (§1) Nembutal (50 mg/kg) was injected intraperitoneally into each rat. Fifteen minutes later a subcutaneous injection of the test compound, somatostatin (200 μg/kg) and physiological saline (control) was administered separately to each of the three groups of rats. Ten minutes later 0.5 milliliters of arginine (300 mg/ml, pH 7.2) was injected into the rats heart. The rats were decapitated five minutes later and their blood was collected in Trasylol -EDTA. Aliquot samples were radioimmunoassayed for growth hormone, glucagon and insulin. The cyclic heptadecapeptide of this invention, with Trp in the L-configuration and in the form of the C-terminal carboxylic acid, selected as representative of the group of compounds disclosed for test purposes, was employed in two additional distinct test procedures at about 5,000 μg/kg dose levels.

insulin = experiment: Nembutal/arginine rat test, blood radioimmunoassayed for insulin
Protocol: as §1

glucagon = experiment: Nembutal/arginine rat test, blood radioimmunoassayed for glucagon
Protocol: as §1

| Structure (SMILES) | GH (growth hormone; dose 200 μg/kg subcutaneous, arginine-stimulated rats, control 282±31) [ng/mL] | Insulin (insulin; dose 200 μg/kg subcutaneous, arginine-stimulated rats, control 243±20) [μU/ml] | Glucagon (glucagon; dose 200 μg/kg subcutaneous, arginine-stimulated rats, control 17.1±4.8) [pg/mL] | GH (growth hormone; dose 1,000 μg/kg subcutaneous, Nembutal 50 mg/kg i.p., arginine intracardiac 10 min after dose, blood 5 min later, control 282±31) [ng/mL] | GH (growth hormone; dose 4,660 μg/kg, third test, control 202±26) [ng/mL] | GH (growth hormone; dose 5,000 μg/kg, second test, control 126±25) [ng/mL] | Insulin (insulin; dose 1,000 μg/kg subcutaneous, arginine-stimulated rats, control 243±20, * Not Significant) [μU/ml] | Insulin (insulin; dose 4,660 μg/kg, third test, control 176±1, * Not Significant) [μU/ml] | Insulin (insulin; dose 5,000 μg/kg, second test, control 283±37, * Not Significant) [μU/ml] | Glucagon (glucagon; dose 1,000 μg/kg subcutaneous, arginine-stimulated rats, control 17.1±4.8) [pg/mL] | Glucagon (glucagon; dose 4,660 μg/kg, third test, control 3.7±1.3, * Not Significant) [pg/mL] | Glucagon (glucagon; dose 5,000 μg/kg, second test, control 14.0±3) [pg/mL] |
| --- | --- | --- | --- | --- | --- | --- | --- | --- | --- | --- | --- | --- |
| C[C@H](N)C(=O)NCC(=O)N[C@H]1CSSC[C@@H](C(=O)O)NC(=O)[C@H](CO)NC(=O)[C@H]([C@@H](C)O)NC(=O)[C@H](Cc2ccccc2)NC(=O)[C@H]([C@@H](C)O)NC(=O)[C@H](CCCCN)NC(=O)[C@H](Cc2c[nH]c3ccccc23)NC(=O)[C@H](Cc2ccccc2)NC(=O)[C@H](Cc2ccccc2)NC(=O)[C@H](CC(N)=O)NC(=O)[C@H](CCCCN)NC1=O [SRIF, somatostatin] | 117 ± 6 | 136±12 | 2.0 ± 1.4 |  |  |  |  |  |  |  |  |  |
| C[C@H](NC(=O)[C@H](Cc1ccccc1)NC(=O)[C@H](Cc1ccccc1)NC(=O)[C@@H](N)Cc1ccccc1)C(=O)NCC(=O)N[C@H]1CSSC[C@@H](C(=O)O)NC(=O)[C@H](CO)NC(=O)[C@H]([C@@H](C)O)NC(=O)[C@H](Cc2ccccc2)NC(=O)[C@H]([C@@H](C)O)NC(=O)[C@H](CCCCN)NC(=O)[C@H](Cc2c[nH]c3ccccc23)NC(=O)[C@H](Cc2ccccc2)NC(=O)[C@H](Cc2ccccc2)NC(=O)[C@H](CC(N)=O)NC(=O)[C@H](CCCCN)NC1=O [Example 3, L-phenylalanyl-L-phenylalanyl-L-phenylalanyl-L-alanylglycyl-L-cysteinyl-L- lysyl-L-asparaginyl-L-phenylalanyl-L-phenylalanyl-L-tryptophyl-L-lysyl-L-threonyl-L-phenylalanyl-L-threonyl-L-seryl-L-cysteine, (6→17) triacetate] |  |  |  | 124 ± 11 | 97 ± 7 | 27 ± 2 | 204±18 | 165±16 | 202±37 | 0.6 ± 0.2 | 1.1 ± 0.5 | 6.5 ± 2.3 |
